Patent US20230107742A1, “SYNERGISTIC EFFECTS, AUGMENTING ANTIMICROBAL EFFECTS OF LIPIDS” (CAPRETTO EHF., priority 2016, published 2023)

Key:
[1] = test system: Haemophilus influenza (NCTC 8468); test: Agar petri dish test, plates wetted with 20 μl formulation, read after 24 hours; assay type: cell-based; conditions: ethanol 5% in mPEG 95% (control)
[2] = test system: Streptococcus pneumoniae (ATCC 49619); test: as above; conditions: ethanol 5% in mPEG 95% (control)
Procedure: (§1) Formulations according to the invention were tested towards three bacterial strains: Staphylococcus aureus (ATCC 25923), Streptococcus pneumoniae (ATCC 49619), Haemophilus influenza (NCTC 8468). The bacteria were distributed in a thin layer across a petri dish with agar. Two plates were wetted with 20 μl of each formulation. The bacteria were allowed to grow at 37° C. for 24 hours. H. influenzae and S. pneumoniae were grown under CO2, but S. aureus was grown in normal atmosphere.
(§2) Readings of results were carried out 24 hours later.

[3] = test system: Staphylococcus aureus (ATCC 25923); test: as above; conditions: ethanol 5% in mPEG 95% (control)
Procedure: as §1, §2

[4] = test system: Enveloped viruses, such as HSV-1, VSV and visna virus; conditions: more active than the free acid; cited from earlier work

SMILES | effect of ethanol alone against Haemophilus influenza [1] | effect of ethanol alone against Streptococcus pneumoniae [2] | effect of ethanol alone against Staphylococcus aureus [3] | virucidal activity relative to the corresponding free fatty acid (capric, lauric acid) [4] [fold]
CCO [ethanol] | essentially no effect | essentially no effect | essentially no effect | 
CCCCCCCCCC(=O)OCC(O)CO (centres unmarked) [Capric acid 1-monoglyceride, capric acid 1-monoglyceride] |  |  |  | 10
CCCCCCCCCCCC(=O)OCC(O)CO (centres unmarked) [lauric acid 1-monoglyceride] |  |  |  | 10
